The Km is the substrate concentration at which the rate is half of its maximum.

From publication PMC4855798, “Cell-bound lipases from Burkholderia sp. ZYB002: gene sequence analysis, expression, enzymatic characterization, and 3D structural model” (BMC Biotechnology, 2016) come the findings set out here.

The assay concerns T1, LipC24.
T1 construct: mature LipC24 coding region (ORF 438 aa), His6-tag, E. coli Origami2 (DE3), co-expressed with foldase LipB lacking N-terminal 70 residues; purified by HisTrap and DEAE, single 45 kDa band; counterpart in B. cepacia J2315 is BCAM2764
The assay is described as follows: spectrophotometric 4-nitrophenol release, non-linear regression. Format: biochemical, Burkholderia sp. ZYB002. As to conditions: 40 °C, 20 mmol/L Na2HPO4-NaH2PO4 buffer pH 7.5; 0.1-1.8 mmol/L substrate.

For the molecule `CCCCCCCCCCCCCC(=O)Oc1ccc([N+](=O)[O-])cc1` [4-nitrophenyl myristate], the Km turned out to be 370 ± 70 µM.
